Tests used:
[1] = test system: HuTu 80; assay: MTT cytotoxicity, HuTu 80; type: cell-based, human
Excerpt: (§1) Cells and Materials. For the experiments, we used tumor cell cultures M-HeLa clone 11 (epithelioid carcinoma of the cervix, subline HeLa, clone M-HeLa), HuTu 80, human duodenal adenocarcinoma, Hep-2, human epithelial cells, SH-SY5Y, human neuroblast-like cells, A549, human lung adenocarcinoma, PA-1, human ovarian teratocarcinoma and MCF-7, a human mammary ductal adenocarcinoma from the collection of the Institute of Cytology, Russian Academy of Sciences (St. Petersburg, Russia); human liver cells (Chang liver) were from the collection and the Research Institute of Virology of the Russian Academy of Medical Sciences (Moscow, Russia).
(§2) MTT Assay. The cytotoxic effect on cells was determined using the colorimetric method of cell proliferation—the MTT test. NADP-H-dependent cellular oxidoreductase enzymes can, under certain conditions, reflect the number of viable cells. These enzymes reduce the tetrazolium dye (MTT) 3-(4,5-dimethylthiazol-2-yl)-2,5-diphenyl-tetrazolium bromide to insoluble blue-violet formazan, which crystallizes inside the cell. The amount of formed formazan is proportional to the number of cells with active metabolism. Cells were seeded on a 96-well Nunc plate at a concentration of 5 × 10^3 cells per well in a volume of 100 μL of medium and cultured in a CO2 incubator at 37 °C until a monolayer was formed. After the nutrient medium was removed, 100 µL of the test drug solutions at the given dilutions were added to the wells, which were prepared directly in the nutrient medium with the addition of 5% DMSO to improve solubility. After 48 h of incubation of the cells with the tested compounds, the nutrient medium was removed from the plates and 100 µL of the nutrient medium without serum with MTT at a concentration of 0.5 mg/mL was added and incubated for 4 h at 37 °C. Formazan crystals were added 100 µL of DMSO to each well. Optical density was recorded at 540 nm on an Invitrologic microplate reader (Novosibirsk, Russia). The experiments for all compounds were repeated three times.
(§3) Statistical analysis. The IC50 values were calculated using the MLA–Quest Graph™ IC50 Calculator (AAT Bioquest, Inc., Sunnyvale, CA, USA), 14 February 2022. Statistical analysis was performed with the Mann–Whitney test (p < 0.05). Tabular and graphical data contain averages and standard error.

[2] = test system: Chang Liver; assay: MTT cytotoxicity, normal Chang liver cells; type: cell-based, human; conditions: Homo sapiens, Chang liver, 48 h incubation, read-out: IC50 (µM) Normal Cell Line Chang Liver
Excerpt: as §1, §2, §3

[3] = test system: Hep-2; assay: MTT cytotoxicity, Hep-2; type: cell-based; conditions: Homo sapiens, read-out: IC50 (µM) Cancer Cell Lines Hep-2
Excerpt: as §1
MTT Assay. The cytotoxic effect on cells was determined using the colorimetric method of cell proliferation—the MTT test. NADP-H-dependent cellular oxidoreductase enzymes can, under certain conditions, reflect the number of viable cells. These enzymes reduce the tetrazolium dye (MTT) 3-(4,5-dimethylthiazol-2-yl)-2,5-diphenyl-tetrazolium bromide to insoluble blue-violet formazan, which crystallizes inside the cell. The amount of formed formazan is proportional to the number of cells with active metabolism. […] Optical density was recorded at 540 nm on an Invitrologic microplate reader (Novosibirsk, Russia). […]
Statistical analysis. The IC50 values were calculated using the MLA–Quest Graph™ IC50 Calculator (AAT Bioquest, Inc., Sunnyvale, CA, USA), 14 February 2022. […]

[4] = test system: HuTu 80 cells; assay: Mitochondrial membrane potential, JC-10 flow cytometry; type: cell-based, human; conditions: 24 h treatment, IC50/2 and IC50
Method: In this study, we used the fluorescent dye JC-10 from the Mitochondria Membrane Potential Kit (Sigma, St. Louis, MO, USA). Changes in mitochondrial membrane potential under the influence of lead compounds 5a and 6a were determined at IC50/2 and IC50 concentrations on the HuTu 80 cell line. When JC-10 accumulates in the mitochondrial matrix, it forms fluorescent J-aggregates. Their red fluorescence is characteristic for normal cells with high mitochondrial membrane potential. The reduction in mitochondrial membrane potential in apoptotic cells allows JC-10 to escape out of the mitochondria in a monomeric form which has green fluorescence. The mitochondrial membrane potential of HuTu 80 cells is decreased after 24 h treatment with the lead compounds 5a and 6a. The change becomes more pronounced as the concentrations of the tested compounds approach IC50 (Figure 7).
Cell Culture. HuTu 80 cells at 1 × 10^6 cells/well in a final volume of 2 mL were seeded into six-well plates. After 48 h of incubation, various concentrations of lead compounds were added to wells.
Mitochondrial Membrane Potential. […] After the cells were rinsed three times and suspended in PBS, the JC-10 fluorescence was observed using flow cytometry (Guava easy Cyte, MERCK, Rahway, NJ, USA).

In the case of `O=C(C[P+](c1ccccc1)(c1ccccc1)c1ccccc1)NCCC1c2c(ccc3ccccc23)Oc2ccc3ccccc3c21` [Compound 6a], the IC50 ([1]; Homo sapiens, HuTu80, 48 h, MTT, 48 h incubation, read-out: IC50 (µM) Cancer Cell Lines HuTu 80) is reported as 1.7 ± 0.1 µM, the “times more effective / more cytotoxic than the reference drug sorafenib” value ([1]; HuTu 80) is reported as “three times more effective” and the IC50 [2] is reported as 41 ± 3.5 µM. The IC50 [3] was 2.34 ± 0.01 µM and the “mitochondrial membrane potential (in words)” value [4] was “decreased”.
